Read-outs that look alike come from different tables or passages of the source.
Legend:
E. coli ATCC 10536 = assay: Bacterial contact time (BCT) test of perfume ingredients in 20% ethanol solution (EN-1276 based); assay type: cell-based, Escherichia coli; settings: 20% EtOH, 45 s
Protocol: Bacterial suspensions of E. coli ATCC 10536 were prepared for antimicrobial testing as follows. Stock cultures stored at -80° C. were sub-cultured onto Tryptic Soy Agar (TSA) plate, and incubated at 37° C. for 24 h to obtain single colonies. Single colonies of the primary cultures were streaked onto TSA plates and incubated at 37° C. for 24 h to prepare the secondary cultures. Single colonies of secondary cultures were inoculated into 50 mL of Tryptic Soy broth (TSB), incubated at 37° C. 180 rpm for 18 h. Aliquots (0.5 ml) of the 18 h culture were inoculated into 50 ml of fresh TSB, and incubated at 37° C. 180 rpm for 2- 3 hours. When the OD600 nm value of the broth reached 1-2, cells were harvested by centrifugation at 5,000 rpm for 10 min, and then resuspended in the same fresh broth media to achieve the target level of 1-5 × 10^8 colony forming unit (CFU)/mL. This suspension was used for further antimicrobial tests.
Unless indicated otherwise, log reduction testing according to the present invention is determined in accordance with the following method.
Bacterial contact time (BCT) test based on European standard EN-1276 was used to determine dose dependent bactericidal activity of perfume ingredients in 20% ethanol solutions.
Perfume ingredients of various concentrations (doses) were prepared in 40% ethanol solutions. Eleven replicates of each sample were added into 96-well microtiter plates (120 µl per well) in column 1-11 of one row, with row B as the control sample of the ethanol solution. Then, 120 µl of cell suspension at a concentration of approximately 1-5 × 10^8 CFU/ML (as prepared above) were added to each well of the microtiter plate. A specified contact time (45 s) was allowed for target bacterial strains. At the end of the contact time, serial dilutions were prepared in 96 well plates with growth media: 3 times of 1 in 10 dilutions and followed by 17 times of 1 in 2 dilutions. Each plate was sealed and incubated at 37° C. under agitation (180 rpm). After incubation, turbidity of the wells (OD 600 nm) was recorded by Tecan microplate reader. Turbid cells were regarded as positive growth of viable cells. The total number of viable cells (log CFU/mL) for each sample was calculated. And the log reduction for each test composition at the final concentration (dose) was calculated against the control sample of the 20% ethanol solution.
Table 20 show the bactericidal dose related effect (log reduction) and calculated effect fraction of the Mixture C and compositions against E. coli ATCC 10536. Stock of compositions were prepared in 100% ethanol, then diluted in MilliQ water to obtain 2 × final concentration in 40% ethanol. BCT tests were conducted on samples against E. coli for a contact time of 45 s.

[1] = Equivalent alkane carbon number (EACN) in model microemulsion system; assay type: physicochemical; settings: C10E5/water/isopropyl myristate model system, 3% wt perfume ingredient
Protocol: EACN values provide information on polarity and surface activity of apolar ingredients. Tchakalova and Fieber (J. of Surfactants and Detergents, 2012, 15(2):167-177) classified perfume ingredients based on values of EACNmix, the EACN of a mixture consisting of a test perfume ingredient and a reference oil (isopropyl myristate). The same model system and method were used to measure the EACN values of perfume ingredients with antimicrobial activities. Different perfume ingredients were added to the model microemulsion system shown in Table 1, in which the nonionic pentaethylene glycol mono n-decyl ether (C10E5) was used as surfactant. Phase transition temperatures of the system from Winsor I to Winsor III, and from Winsor III to Winsor II were determined using a water bath. Alkanes with different alkane carbon numbers (octane, decane, dodecane and hexadecane) were used to establish a linear correlation curve between EACN and the PIT, which is the average of the transitions from Winsor I to Winsor III, and from Winsor III to Winsor II, respectively. EACNmix was then calculated based on the linear relationship and the measured PIT for systems containing different perfume ingredients. The EACN of the pure perfume ingredient was calculated based on the molar ratio of the tested PRMs in the oil phase using following equation: […]
wherein n and nref are the molar fractions of tested perfume ingredient and the reference ingredient (i.e., isopropyl myristate) in the oil phase, respectively.

physchem = assay type: physicochemical
Protocol: The partition coefficient (P) is defined as the ratio of the concentrations (C) to the equilibrium of a dissolved and highly diluted substance in a biphasic system consisting of two almost immiscible solvents.
In the case of n-octanol and water:
The partition coefficient P is the quotient of two concentrations, it is generally indicated in its logarithmic form, base 10 (LogP).
The log P values of different perfume ingredients were measured using standard high performance liquid chromatography method, according to the reference (OECD, guideline No. 117, adopted on 13 Apr. 2004, Partition coefficient (n-octanol-water), High Performance Liquid Chromatography (HPLC) Method).

[2] = test system: Escherichia coli ATCC 10536; assay: Robotic BCT test of perfume ingredients in model surfactant bases; assay type: cell-based; settings: for log reduction at 0.5 %: Escherichia coli, ATCC10536, 45 s, read-out: Log reduction in Base 1 (Log CFU/mL)
Protocol: The surfactant bases tested included 1) sodium lauryl ether sulfate (SLES) and cocamidopropyl betaine (CAPB) at 3:1 mass ratios; 2) SLES, CAPB and coco-glucoside at 2:1:1 mass ratios. Test samples were prepared by mixing perfume ingredients with the surfactant bases and vigorously stirred for 24 hrs. Concentration of perfume ingredients in the bases was 0.5% wt. Samples with transparent appearance were selected for antimicrobial testing.
Antimicrobial efficacy was tested against a representative Gram-negative bacterial strain, Escherichia coli ATCC 10536, using robotic bacteria contact time (BCT) test based on European standard EN-1276 and EP2787827(B1).
Preparation of screening plate and dilution plate: Aliquots (270 µl) of compositions were dispensed into the wells of a 96-well microtiter plate (MTP) along two columns (B1-H1, and B7-H7), and 270 µl of MilliQ water was added to well A1 and A7 as the control samples. This MTP was labelled as the “Screening plate”. In another MTP, labelled as the “Dilution plate”, 270 µL of Dey-Engley (D/E) neutralizing solution was added to column 1 and column 7. 270 µl of tryptone diluent solution was added to columns 2-6 and columns 8-12 of the Dilution MTP by a Hamilton robotic liquid handling station.
BCT test & neutralization & dilution: Bacterial stock (30 µl) was then added to columns 1 of the ‘Screening plate’ and mixed by a Hamilton robotic liquid handling station. After a contact time of 45 seconds, 30 µl of the mixtures in column 1 were transferred into the corresponding wells of column 1 of the ‘Dilution plate’. After neutralizing for 5 minutes in the D/E neutralizing solution, 30 µl of the neutralized mixtures were transferred from column 1 to column 2 of the Dilution MTP and mixed, followed by transferring 30 µl of the mixtures from column 2 into column 3. This process was repeated serially diluting the bacteria suspensions across the plate to column 6. Bacterial stock (30 µl) was then added to columns 7 of the ‘Screening plate’ and mixed by a Hamilton robotic liquid handling station. After a contact time of 45 seconds, 30 µl of the mixtures in column 7 were transferred into the corresponding wells of column 7 of the ‘Dilution plate’. After neutralizing for 5 minutes in the D/E neutralizing solution, 30 µl of the mixtures were transferred from column 7 to column 8 of the Dilution MTP and mixed, followed by transferring further 30 µl mixtures from column 8 into column 9. This process was repeated serially diluting the bacteria suspensions across the plate to column 12.
Plating: 30 µl volumes from each well in the Dilution MTP were transferred onto four Tryptone Soya Agar (TSA) plates. The TSA plates were allowed to stand for about two hours so that the 30 µl inocula spots could dry and the plates were then inverted and incubated overnight at 37° C. for 24 hours. After incubation, colonies were counted.
Calculating log reduction: Select the dilutions with colony counts, and calculate the viable cell counts (CFU/mL) of mixture in ‘Screening plate’, and log reduction against the control MilliQ sample was calculated.

[3] = model base 1, table by functional group

Structure (SMILES) | Effect fraction (E. coli ATCC 10536; dose 0.025% w/v) | Log reduction (E. coli ATCC 10536; dose 0.025% w/v) | Effect fraction (E. coli ATCC 10536; dose 0.030% w/v) | Log reduction (E. coli ATCC 10536; dose 0.030% w/v) | Effect fraction (E. coli ATCC 10536; dose 0.035% w/v) | Log reduction (E. coli ATCC 10536; dose 0.035% w/v) | Effect fraction (E. coli ATCC 10536; dose 0.040% w/v) | Log reduction (E. coli ATCC 10536; dose 0.040% w/v) | Effect fraction (E. coli ATCC 10536; dose 0.045% w/v) | Log reduction (E. coli ATCC 10536; dose 0.045% w/v) | EACN [1] | chromatographic logP (physchem) | log reduction at 0.5 % ([2]; 0.5% perfume ingredient, Base 1: SLES 1.875%, CAPB 0.625%, contact 45 s) | log reduction at 0.5 % [2, 3] | Effect fraction (E. coli ATCC 10536; dose 0.050% w/v) | Log reduction (E. coli ATCC 10536; dose 0.050% w/v) | chromatographic logP (physchem; n-octanol/water, HPLC method, read-out: Log P) | log reduction at 0.5 % [2] | Log reduction in Base 1 (Log CFU/mL) [2, 3] [Log CFU/mL]
Cc1ccc(C(C)C)c(O)c1 [2-isopropyl-5-methylphenol] | 0.120 | 0.887 | 0.300 | 2.140 | 0.470 | 3.344 | 0.690 | 4.987 | 0.890 | 6.387 | -43.68 | 2.57 | > 5.5 | > 5.5 |  |  |  |  | 
Cc1ccc(C(C)C)cc1O [5-isopropyl-2-methylphenol] |  |  | 0.090 | 0.660 | 0.250 | 1.812 | 0.610 | 4.379 | 0.830 | 5.960 | -43.89 |  |  |  | 0.970 | 6.960 | 2.52 | 5.3 | 5.3
